Results: article PMC12396409, “Screening and hit evaluation of a microbial metabolite library against the pathogenic Plasmodium falciparum and Toxoplasma gondii parasites” (International Journal for Parasitology: Drugs and Drug …, 2025)
Read-outs that look alike come from different tables or passages of the source.

Tests used:
[1] = tested on: P. falciparum 3D7 parasites; experiment: P. falciparum growth inhibition assay, 2-cycle (120 h treatment), delayed-death screen and dose-response; type: cell-based, Plasmodium falciparum; settings: for 3) Fold change (72 h/120 h): growth at 72 h / growth at 120 h
[2] = tested on: T. gondii RH strain (RH-Tub-eYFP) tachyzoites; experiment: microbe, parasite or virus in culture; type: cell-based, Toxoplasma gondii; settings: 72 h; for percent parasite growth at 2 µg/mL: Toxoplasma gondii
[3] = tested on: P. falciparum 3D7 parasites; experiment: P. falciparum growth inhibition assay, 1-cycle (72 h treatment), SYBR DNA staining (library screen at 2 μg/mL and dose-response); type: cell-based, Plasmodium falciparum
[4] = Plasmodium falciparum, 3D7, P. falciparum, 120 h, screen at 2 μg/mL, replicate 1, read-out: Pf_120h_%Growth_Rep1
[5] = Plasmodium falciparum, 3D7, P. falciparum, 120 h, screen at 2 μg/mL, replicate 2, read-out: Pf_120h_%Growth_Rep2
[6] = Plasmodium falciparum, 3D7, P. falciparum, 72 h, screen at 2 μg/mL, replicate 1, read-out: Pf_72h_%Growth_Rep1
[7] = Plasmodium falciparum, 3D7, P. falciparum, 72 h, screen at 2 μg/mL, replicate 2, read-out: Pf_72h_%Growth_Rep2
[8] = library screen at 2 μg/mL, 120 h, % growth, replicate 1
[9] = library screen at 2 μg/mL, 120 h, % growth, replicate 2
[10] = library screen at 2 μg/mL, % growth, replicate 1
[11] = library screen at 2 μg/mL, % growth, replicate 2
[12] = library screen at 2 μg/mL, 72 h, % growth, replicate 1
[13] = library screen at 2 μg/mL, 72 h, % growth, replicate 2
[14] = P. falciparum 3D7, 120 h, parasite screen at 2 μg/mL, % growth, replicate 1
[15] = P. falciparum 3D7, 120 h, parasite screen at 2 μg/mL, % growth, replicate 2
[16] = T. gondii, parasite screen at 2 μg/mL, % growth, replicate 1
[17] = T. gondii, parasite screen at 2 μg/mL, % growth, replicate 2
[18] = P. falciparum 3D7, 72 h, parasite screen at 2 μg/mL, % growth, replicate 1
[19] = P. falciparum 3D7, 72 h, parasite screen at 2 μg/mL, % growth, replicate 2

In the case of `O=C(O)CCC(=O)OC[C@@H](NC(=O)C(Cl)Cl)[C@H](O)c1ccc([N+](=O)[O-])cc1` [Chloramphenicol succinate], the activity at 2 µg/mL [1, 4] was 150%, the activity at 2 µg/mL [1, 5] was 95.2% and the percent parasite growth at 2 µg/mL ([2]; read-out: Tg_72h_%Growth_Rep1) was 79.4%. It also gave a percent parasite growth at 2 µg/mL ([2]; read-out: Tg_72h_%Growth_Rep2) of 97.4%, an activity at 2 µg/mL [3, 6] of 111% and an activity at 2 µg/mL [3, 7] of 86.6%.

`CCOC(=O)c1c(C)cc(O)cc1O` [Ethyl orsellinate] was tested, and the Pf_120h_%Growth_Rep1 [1, 8] was 96.78%, the Pf_120h_%Growth_Rep2 [1, 9] was 106.42% and the Tg_72h_%Growth_Rep1 [2, 10] was 128.38%. It also gave a Tg_72h_%Growth_Rep2 [2, 11] of 103.54%, a Pf_72h_%Growth_Rep1 [3, 12] of 90.89% and a Pf_72h_%Growth_Rep2 [3, 13] of 117.50%.

Work on `CO[C@H]1C[C@H](O[C@H]2[C@H](C)O[C@@H](O[C@@H]3/C(C)=C/C[C@@H]4C[C@@H](C[C@]5(C=C[C@H](C)[C@@H](C6CCCCC6)O5)O4)OC(=O)C4=C[C@H](C)[C@@H](O)[C@H]5OC/C(=C\C=C[C@@H]3C)[C@@]45O)C[C@@H]2OC)O[C@@H](C)[C@@H]1O` [Doramectin, delta2-] yielded a Pf_120h_%Growth_Rep1 [1, 8] of 4.07%, a Pf_120h_%Growth_Rep2 [1, 9] of 0.97% and a Tg_72h_%Growth_Rep1 [2, 10] of 85.18%. It also gave a Tg_72h_%Growth_Rep2 [2, 11] of 104.19%, a Pf_72h_%Growth_Rep1 [3, 12] of 3.28% and a Pf_72h_%Growth_Rep2 [3, 13] of 1.57%.

`O=c1cc([O-])c1=O.[Na+]` [BIA-M1269] was tested, and the Pf_120h_%Growth_Rep1 [1, 14] was 98.81%, the Pf_120h_%Growth_Rep2 [1, 15] was 138.01% and the Tg_72h_%Growth_Rep1 [2, 16] was 105.46%. For the same molecule, the Tg_72h_%Growth_Rep2 [2, 17] was 100.53%, the Pf_72h_%Growth_Rep1 [3, 18] was 85.51% and the Pf_72h_%Growth_Rep2 [3, 19] was 86.48%.

`COC1C=CC=C(C)C(=O)NC2=CC(=O)C=C(C2=O)C(OC)C(C)CC(OC)C(OC)C(C)C=C(C)C1OC(N)=O` (stereo not drawn) [BIA-H1036] was tested, and the Pf_120h_%Growth_Rep1 ([1]; P. falciparum 3D7, 120 h, library screen at 2 μg/mL, % growth, replicate 1) was 68.16%, the Pf_120h_%Growth_Rep2 ([1]; P. falciparum 3D7, 120 h, library screen at 2 μg/mL, % growth, replicate 2) was 41.77% and the Tg_72h_%Growth_Rep1 ([2]; T. gondii RH, library screen at 2 μg/mL, % growth, replicate 1) was 133.21%. For the same molecule, the Tg_72h_%Growth_Rep2 ([2]; T. gondii RH, library screen at 2 μg/mL, % growth, replicate 2) was 80.30%, the Pf_72h_%Growth_Rep1 ([3]; P. falciparum 3D7, 72 h, library screen at 2 μg/mL, % growth, replicate 1) was 51.92% and the Pf_72h_%Growth_Rep2 ([3]; P. falciparum 3D7, 72 h, library screen at 2 μg/mL, % growth, replicate 2) was 44.34%.

`CC[C@H]1OC(=O)[C@H](C)[C@@H](O[C@H]2C[C@@](C)(OC)[C@@H](O)[C@H](C)O2)[C@H](C)[C@@H](O[C@@H]2O[C@H](C)C[C@H](N(C)C)[C@H]2O)[C@@]2(C)C[C@@H](C)[C@@]3(O[C@@]1(C)[C@H](O)[C@H]3C)O2` [Anhydroerythromycin A] was tested, and the Pf_120h_%Growth_Rep1 [1, 8] was 87.25%, the Pf_120h_%Growth_Rep2 [1, 9] was 85.54% and the Tg_72h_%Growth_Rep1 [2, 10] was 129.02%. It also gave a Tg_72h_%Growth_Rep2 [2, 11] of 98.86%, a Pf_72h_%Growth_Rep1 [3, 12] of 84.47% and a Pf_72h_%Growth_Rep2 [3, 13] of 88.69%.

In the case of `CCCNC[C@]1(O)[C@H](C)O[C@@H](O[C@H]2[C@H](C)[C@@H](O[C@@H]3O[C@H](C)C[C@H](N(C)C)[C@H]3O)[C@](C)(O)C[C@@H](C)CN[C@H](C)[C@@H](O)[C@](C)(O)[C@@H](CC)OC(=O)[C@@H]2C)C[C@@]1(C)OC` [Tulathromycin, reference compound], the “2) Growth (%) at 120 h” value ([1]; P. falciparum, 2 μg/mL, 120 h) was 16.75%, the Pf_120h_%Growth_Rep1 ([1]; P. falciparum, 120 h, screen at 2 μg/mL, replicate 1) was 21.75% and the Pf_120h_%Growth_Rep2 ([1]; P. falciparum, 120 h, screen at 2 μg/mL, replicate 2) was 11.74%. For the same molecule, the “3) Fold change (72 h/120 h)” value ([1]; P. falciparum, 2 μg/mL) was 2.0, the Tg_72h_%Growth_Rep1 ([2]; T. gondii, screen at 2 μg/mL, replicate 1) was 76.92% and the Tg_72h_%Growth_Rep2 ([2]; T. gondii, screen at 2 μg/mL, replicate 2) was 80.94%. For the same molecule, the “1) Growth (%) at 72 h” value ([3]; P. falciparum, 2 μg/mL, 72 h) was 33.53%, the Pf_72h_%Growth_Rep1 ([3]; P. falciparum, 72 h, screen at 2 μg/mL, replicate 1) was 33.36% and the Pf_72h_%Growth_Rep2 ([3]; P. falciparum, 72 h, screen at 2 μg/mL, replicate 2) was 33.69%.

For `CO[C@@H]1[C@@H](O)[C@@H](O)[C@@H](Oc2ccc3c(O)c(NC(=O)c4ccc(O)c(CC=C(C)C)c4)c(=O)oc3c2C)OC1(C)C` [Descarbamylnovobiocin], the Pf_120h_%Growth_Rep1 [1, 8] was 85.93%, the Pf_120h_%Growth_Rep2 [1, 9] was 82.51% and the Tg_72h_%Growth_Rep1 [2, 10] was 154.63%. It also gave a Tg_72h_%Growth_Rep2 [2, 11] of 96.44%, a Pf_72h_%Growth_Rep1 [3, 12] of 85.51% and a Pf_72h_%Growth_Rep2 [3, 13] of 80.09%.

For `CC[C@H]1OC(=O)C[C@@H](O)[C@H](C)[C@@H](O[C@@H]2O[C@H](C)[C@@H](O)[C@H](N(C)C)[C@H]2O)[C@@H](CCN2C[C@H](C)C[C@H](C)C2)C[C@@H](C)C(=O)/C=C/C(C)=C/[C@@H]1CO[C@@H]1O[C@H](C)[C@@H](O)[C@@H](OC)[C@H]1OC` [Tilmicosin, reference compound], the “3) Fold change (72 h/120 h)” value ([1]; P. falciparum, 2 μg/mL) was 3.0, the activity at 2 µg/mL ([1]; Plasmodium falciparum, 3D7; P. falciparum, 2 μg/mL, 120 h; read-out: 2) Growth (%) at 120 h) was 14.5% and the activity at 2 µg/mL [1, 4] was 22.4%. It also gave an activity at 2 µg/mL [1, 5] of 6.63%, a percent parasite growth at 2 µg/mL ([2]; T. gondii, screen at 2 μg/mL, replicate 1, read-out: Tg_72h_%Growth_Rep1) of 48.2% and a percent parasite growth at 2 µg/mL ([2]; T. gondii, screen at 2 μg/mL, replicate 2, read-out: Tg_72h_%Growth_Rep2) of 37.2%. The activity at 2 µg/mL ([3]; Plasmodium falciparum, 3D7; P. falciparum, 2 μg/mL, 72 h; read-out: 1) Growth (%) at 72 h) was 43.1%, the activity at 2 µg/mL [3, 6] was 45% and the activity at 2 µg/mL [3, 7] was 41.2%.

`Cn1c2ccccc2c(=O)c2c(O)cc3c(c21)C=CC(C)(C)O3` [BIA-N1949] gave a Pf_120h_%Growth_Rep1 [1, 14] of 85.11%, a Pf_120h_%Growth_Rep2 [1, 15] of 95.19% and a Tg_72h_%Growth_Rep1 [2, 16] of 111.30%. For the same molecule, the Tg_72h_%Growth_Rep2 [2, 17] was 95.22%, the Pf_72h_%Growth_Rep1 [3, 18] was 90.51% and the Pf_72h_%Growth_Rep2 [3, 19] was 117.30%.
